Calls of active or inactive are those of the source. No cut-off for these calls is given here.
How the values were obtained:
Format in all cases: cell-based
[1] = target: T1, Programmed cell death protein 4 (Homo sapiens) (UniProt Q53EL6); assay: Stabilization of Pdcd4 expressed in TPA-stimulated human HEK293 cells at 2.5 uM by luciferase reporter assay
T1 sequence (whole entry): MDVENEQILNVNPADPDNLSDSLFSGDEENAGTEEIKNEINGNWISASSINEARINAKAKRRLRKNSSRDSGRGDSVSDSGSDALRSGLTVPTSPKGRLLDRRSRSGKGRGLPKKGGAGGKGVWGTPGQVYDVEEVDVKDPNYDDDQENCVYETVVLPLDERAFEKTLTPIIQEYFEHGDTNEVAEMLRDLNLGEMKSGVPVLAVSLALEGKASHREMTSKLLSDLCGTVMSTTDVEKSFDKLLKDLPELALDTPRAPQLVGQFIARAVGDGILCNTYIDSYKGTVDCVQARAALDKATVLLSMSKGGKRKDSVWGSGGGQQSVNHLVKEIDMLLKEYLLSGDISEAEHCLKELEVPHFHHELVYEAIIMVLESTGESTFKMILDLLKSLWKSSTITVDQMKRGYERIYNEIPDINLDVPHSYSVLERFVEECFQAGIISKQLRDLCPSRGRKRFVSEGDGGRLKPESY

HEK293 = assay: Cytotoxicity against human HEK293 cells
[2] = target: T1, Programmed cell death protein 4 (Homo sapiens); assay: Stabilization of Pdcd4 expressed in human HEK293 cells assessed as inhibition of TPA-induced degradation by luciferase reporter assay

Structure (SMILES) | max activation [1] [%] | Activity (HEK293) [µM] | inhibition [2]
Nc1ncnc2c1ccn2[C@@H]1O[C@H](CO)[C@@H](O)[C@H]1O [TUBERCIDIN] | 94.2 | > 2.5 | –
COC(=O)/C(C)=C/C(C)CC(C)CC(C)(O)CC(C)O (stereo not given) | – | – | inactive
COC(=O)/C(C)=C/C(C)CC(C)CC(C)(O)C(C)O (stereo not given) | – | – | inactive
CCC(=O)/C(C)=C/C(C)CC(C)CC(C)(O)CC (stereo not given) | – | – | inactive

From ChEMBL document CHEMBL1909608, “Actinopolysporins A-C and tubercidin as a Pdcd4 stabilizer from the halophilic actinomycete Actinopolyspora erythraea YIM 90600” (J Nat Prod, 2011)
